These results are taken from patent publication US20260274892A1, “MACROCYCLIC BROAD SPECTRUM ANTIBIOTICS” (RQx Pharmaceuticals, Inc., priority 2017, published 2026).

This assay concerns Escherichia coli ATCC 25922. Description: Minimum inhibitory concentration (MIC), CLSI broth micro-dilution, E. coli. Format: cell-based. Particulars: Escherichia coli, ATCC25922, Table 6, cation adjusted Mueller Hinton Broth + 0.002% Tween-80, 35° C., 22 hours. The method, then: In vitro antimicrobial activity of each compound was determined by measuring minimal inhibitor concentrations (MICs) using the broth micro-dilution technique as approved by the Clinical and Laboratory Standards Institute (CLSI) (Methods for Dilution Antimicrobial Susceptibility Tests for Bacteria that Grow Aerobically; Approved Standard-Eighth Edition. CLSI document M07-A8. Wayne, PA: Clinical and Laboratroy Standards; 2009). Antibacterial activity was measure against two strains of bacteria: a Methicillin Resistant Staphylococcus aureus strain USA 200, (S. aureus) and Escherichia coli ATCC 25922 (E. coli), a clinically relevant Gram-negative strain. Cells were inoculated onto plates of Trypyticase Soy Agar or Luria Agar respectively and grown at 35° C. for 20 hours. Inocula suspensions were prepared by scraping cells into 1 mL of testing media (cation adjusted Mueller Hinton Broth supplemented with 0.002% v/v Tween-80) and diluting to a final OD600nm of 0.01.
Test compounds were prepared in DMSO at a concentration of 10 mg/mL. In protocol 1, the compound stocks were diluted into testing media at a concentration of 64 µg/ml and serial 2-fold dilutions were made in the same media, in 96-well U bottom microtiter dishes, for a total of 10 compound concentrations. In protocol 2, the compound stocks were diluted into testing media at a concentration of 4 µg/mL and serial 2-fold dilutions were made in the same media, in 96-well U bottom microtiter dishes, for a total of 10 compound concentrations. In protocol 3, compound stocks were diluted into testing media at a concentration of 0.5 μg/mL, with serial 2-fold dilutions conducted as described above. In protocol 4, compound stocks were diluted into testing media at a concentration of […], with serial 2-fold dilutions conducted as described above. Inocula suspensions were added to the 2-fold serial dilutions of test compounds to a final density of GD OD600nm of 0.0005 and incubated at 35° C. for 22 hours.
For orientation: In broth dilution the organism is exposed to a series of concentrations in liquid medium.

As a reminder, the MIC is the smallest concentration in the dilution series that meets the test's criterion for growth inhibition. On to `Cc1cc(C(C)(C)C)ccc1-c1ccc(C(=O)N[C@@H](CCN)C(=O)N(C)[C@@H]2C(=O)N[C@@H](C)C(=O)N[C@H](C(=O)NCC#N)Cc3ccc(OCCN)c(c3)-c3cc2ccc3OCCN)c(C)n1` (racemic) [Compound 210, rac-(8S,11S,14S)-3,18-bis(2-aminoethoxy)-N-(cyanomethyl)-11-methyl-14-[methyl-[rac-(2S)-4-amino-2-[[6-(4-tert-butyl-2-methyl-phenyl)-2-methyl-pyridine-3-carbonyl]amino]butanoyl]amino]-10,13-dioxo-9,12-diazatricyclo[13.3.1.12,6]icosa-1(18),2(20),3,5,15(19),16-hexaene-8-carboxamide], for which the MIC was 0.35 µM.

Take `Cc1nc(-c2ccc(C3(C(F)(F)F)CC3)cc2)ccc1C(=O)N[C@@H](CCN)C(=O)N(C)[C@@H]1C(=O)N[C@@H](C)C(=O)N[C@H](C(=O)NCC#N)Cc2ccc(OCCN)c(c2)-c2cc1ccc2OCCN` (racemic) [Compound 211, rac-(8S,11S,14S)-3,18-bis(2-aminoethoxy)-N-(cyanomethyl)-11-methyl-14-[methyl-[rac-(2S)-4-amino-2-[[2-methyl-6-[4-[1-(trifluoromethyl)cyclopropyl]phenyl]pyridine-3-carbonyl]amino]butanoyl]amino]-10,13-dioxo-9,12-diazatricyclo[13.3.1.12,6]icosa-1(18),2(20),3,5,15(19),16-hexaene-8-carboxamide]: the MIC was 0.17 µM.

As to `Cc1cc(-c2ccc(C(C)(C)C)cc2)ncc1C(=O)N[C@@H](CCN)C(=O)N(C)[C@@H]1C(=O)N[C@@H](C)C(=O)N[C@H](C(=O)NCC#N)Cc2ccc(OCCN)c(c2)-c2cc1ccc2OCCN` (racemic) [Compound 215, rac-(8S,11S,14S)-3,18-bis(2-aminoethoxy)-N-(cyanomethyl)-11-methyl-14-[methyl-[rac-(2S)-4-amino-2-[[6-(4-tert-butylphenyl)-4-methyl-pyridine-3-carbonyl]amino]butanoyl]amino]-10,13-dioxo-9,12-diazatricyclo[13.3.1.12,6]icosa-1(18),2(20),3,5,15(19),16-hexaene-8-carboxamide], the MIC stood at 0.13 µM.

For the molecule `Cc1nc(-c2ccc(CC(C)(C)C)cc2)ncc1C(=O)N[C@@H](CCN)C(=O)N(C)[C@@H]1C(=O)N[C@@H](C)C(=O)N[C@H](C(=O)NCC#N)Cc2ccc(OCCN)c(c2)-c2cc1ccc2OCCN` (racemic) [Compound 226, rac-(8S,11S,14S)-3,18-bis(2-aminoethoxy)-N-(cyanomethyl)-11-methyl-14-[methyl-[rac-(2S)-4-amino-2-[[2-[4-(2,2-dimethylpropyl)phenyl]-4-methyl-pyrimidine-5-carbonyl]amino]butanoyl]amino]-10,13-dioxo-9,12-diazatricyclo[13.3.1.12,6]icosa-1(18),2(20),3,5,15(19),16-hexaene-8-carboxamide], the MIC is 0.099 µM.

Turning to `Cc1nc(C#CC(C)(C)C)ncc1C(=O)N[C@@H](CCN)C(=O)N(C)[C@@H]1C(=O)N[C@@H](C)C(=O)N[C@H](C(=O)NCC#N)Cc2ccc(OCCN)c(c2)-c2cc1ccc2OCCN` (racemic) [Compound 228, rac-(8S,11S,14S)-3,18-bis(2-aminoethoxy)-N-(cyanomethyl)-11-methyl-14-[methyl-[rac-(2S)-4-amino-2-[[2-(3,3-dimethylbut-1-ynyl)-4-methyl-pyrimidine-5-carbonyl]amino]butanoyl]amino]-10,13-dioxo-9,12-diazatricyclo[13.3.1.12,6]icosa-1(18),2(20),3,5,15(19),16-hexaene-8-carboxamide], the MIC was determined as 2.3 µM.

`CCCCCOc1ccc(-c2ncc(C(=O)N[C@@H](CCN)C(=O)N(C)[C@@H]3C(=O)N[C@@H](C)C(=O)N[C@H](C(=O)NCC#N)Cc4ccc(OCCN)c(c4)-c4cc3ccc4OCCN)c(C)n2)cc1` (racemic) [Compound 241, rac-(8S,11S,14S)-3,18-bis(2-aminoethoxy)-N-(cyanomethyl)-11-methyl-14-[methyl-[rac-(2S)-4-amino-2-[[4-methyl-2-(4-pentoxyphenyl)pyrimidine-5-carbonyl]amino]butanoyl]amino]-10,13-dioxo-9,12-diazatricyclo[13.3.1.12,6]icosa-1(18),2(20),3,5,15(19),16-hexaene-8-carboxamide]: the MIC was determined as 0.097 µM.

As to `Cc1nc(-c2ccc(OCC(C)(C)C)cc2)ncc1C(=O)N[C@@H](CCN)C(=O)N(C)[C@@H]1C(=O)N[C@@H](C)C(=O)N[C@H](C(=O)NCC#N)Cc2ccc(OCCN)c(c2)-c2cc1ccc2OCCN` (racemic) [Compound 252, rac-(8S,11S,14S)-3,18-bis(2-aminoethoxy)-N-(cyanomethyl)-11-methyl-14-[methyl-[rac-(2S)-4-amino-2-[[2-[4-(2,2-dimethylpropoxy)phenyl]-4-methyl-pyrimidine-5-carbonyl]amino]butanoyl]amino]-10,13-dioxo-9,12-diazatricyclo[13.3.1.12,6]icosa-1(18),2(20),3,5,15(19),16-hexaene-8-carboxamide], the MIC was determined as 0.097 µM.

Turning to `Cc1nc(-c2ccc(C3(C4CCCC4)CC3)cc2)nc(C)c1C(=O)N[C@@H](CCN)C(=O)N(C)[C@@H]1C(=O)N[C@@H](C)C(=O)N[C@H](C(=O)NCC#N)Cc2ccc(OCCN)c(c2)-c2cc1ccc2OCCN` (racemic) [Compound 286, rac-(8S,11S,14S)-3,18-bis(2-aminoethoxy)-N-(cyanomethyl)-11-methyl-14-[methyl-[rac-(2S)-4-amino-2-[[2-[4-(1-cyclopentylcyclopropyl)phenyl]-4,6-dimethyl-pyrimidine-5-carbonyl]amino]butanoyl]amino]-10,13-dioxo-9,12-diazatricyclo[13.3.1.12,6]icosa-1(18),2(20),3,5,15(19),16-hexaene-8-carboxamide], the MIC was found to be 0.13 µM.

Turning to `CCCCc1ccc(-c2nc(C)c(C(=O)N[C@@H](CCN)C(=O)N(C)[C@@H]3C(=O)N[C@@H](C)C(=O)N[C@H](C(=O)NCC#N)Cc4ccc(OCCN)c(c4)-c4cc3ccc4OCCN)c(C)n2)nc1` (racemic) [Compound 293, rac-(8S,11S,14S)-3,18-bis(2-aminoethoxy)-N-(cyanomethyl)-11-methyl-14-[methyl-[rac-(2S)-4-amino-2-[[2-(5-butyl-2-pyridyl)-4,6-dimethyl-pyrimidine-5-carbonyl]amino]butanoyl]amino]-10,13-dioxo-9,12-diazatricyclo[13.3.1.12,6]icosa-1(18),2(20),3,5,15(19),16-hexaene-8-carboxamide], the MIC was 1.5 µM.

As for `Cc1nc(-c2ccc(C(C)(C)C)cc2F)nc(C)c1C(=O)N[C@@H](CCN)C(=O)N(C)[C@@H]1C(=O)N[C@@H](C)C(=O)N[C@H](C(=O)NCC#N)Cc2ccc(OCCN)c(c2)-c2cc1ccc2OCCN` (racemic) [Compound 299, rac-(8S,11S,14S)-3,18-bis(2-aminoethoxy)-N-(cyanomethyl)-11-methyl-14-[methyl-[rac-(2S)-4-amino-2-[[2-(4-tert-butyl-2-fluoro-phenyl)-4,6-dimethyl-pyrimidine-5-carbonyl]amino]butanoyl]amino]-10,13-dioxo-9,12-diazatricyclo[13.3.1.12,6]icosa-1(18),2(20),3,5,15(19),16-hexaene-8-carboxamide], the minimal inhibitory concentration (MIC) worked out at 0.38 µM.
